Test: HK1 enzyme inhibitors – biochemical, selectivity assay for HKDC1 inhibitor project, dose response (AID 504763)
[1] = inactive by the depositor's call

| SMILES | IC50 [1] [µM] | IC50 [µM] |
| --- | --- | --- |
| Cc1oc2c(c1C(=O)c1ccc(Cl)cc1)C(=O)C(=O)c1ccccc1-2 [3-(4-Chloro-benzoyl)-2-methyl-naphtho[1,2-b]furan-4,5-dione] | 40 |  |
| COc1ccc(C(=O)c2coc3c2C(=O)C(=O)c2ccccc2-3)cc1 [3-(4-Methoxy-benzoyl)-naphtho[1,2-b]furan-4,5-dione] | 27.2 |  |
| COCc1cc(C2C(C(=O)c3ccco3)C(=O)C(=O)N2CCOCCO)ccc1O (stereo unspecified) [3-(furan-2-carbonyl)-4-hydroxy-1-[2-(2-hydroxyethoxy)ethyl]-2-[4-hydroxy-3-(methoxymethyl)phenyl]-2H-pyrrol-5-one] |  | > 80 |
| O=C1C(=O)c2c(C(=O)c3ccccc3)coc2-c2ccccc21 [3-(phenylcarbonyl)benzo[g][1]benzofuran-4,5-dione] |  | > 80 |
| CCCCNC(=O)c1sc(=S)n2c1[nH]c(=O)c1ccc(C(=O)NCCc3ccc(OC)c(OC)c3)cc12 [3-N-butyl-8-N-[2-(3,4-dimethoxyphenyl)ethyl]-5-oxo-1-sulfanylidene-4H-[1,3]thiazolo[3,4-a]quinazoline-3,8-dicarboxamide] | 21.2 |  |
| Cc1ccc(S(=O)(=O)N=C2C=C(Nc3cccc(C(=O)O)c3)C(=O)c3ccccc32)c(C)c1 [3-[[(4E)-4-(2,4-dimethylphenyl)sulfonylimino-1-oxo-2-naphthalenyl]amino]benzoic acid] |  | 11 |
| O=C1C=C(c2c(O)ccc3ccccc23)c2ccccc2C1=O [4-(2-hydroxy-1-naphthalenyl)naphthalene-1,2-dione] |  | 5.1 |
| Cc1ccc(S(=O)(=O)N=C2C=C(Sc3nnc[nH]3)C(=O)c3ccccc32)cc1 [4-Methyl-N-[4-oxo-3-(2H-[1,2,4]triazol-3-ylsulfanyl)-4H-naphthalen-1-ylidene]-benzenesulfonamide] |  | 3.29 |
| CCN(CC)CCNc1cc(C)nc2c1C(=O)C(=O)C=C2N1CCCCC1 [4-[2-(diethylamino)ethylamino]-2-methyl-8-piperidin-1-yl-quinoline-5,6-dione] | 38.3 |  |
| CCOc1ccc(/C=C2/SC(=S)N(CCC(=O)Nc3ccc(C(=O)O)cc3)C2=O)cc1 [4-[3-[(5E)-5-[(4-ethoxyphenyl)methylidene]-4-oxo-2-sulfanylidene-1,3-thiazolidin-3-yl]propanoylamino]benzoic acid] |  | > 80 |
| Cc1cc(Oc2ccc(C(C)(C)C)cc2)nc(N2CCOCC2)n1 [4-[4-(4-tert-butylphenoxy)-6-methylpyrimidin-2-yl]morpholine] |  | > 80 |
| COC(=O)c1ccc(NCc2cc(O)ccc2O)cc1 [4-[(2,5-dihydroxyphenyl)methylamino]benzoic acid methyl ester] | 21.3 |  |
| Cc1ccccc1NC1=CC(=NS(=O)(=O)c2ccc(C(=O)O)cc2)c2ccccc2C1=O [4-[(E)-[3-(2-methylanilino)-4-oxonaphthalen-1-ylidene]amino]sulfonylbenzoic acid] |  | 2.84 |
| CCN(CC)c1ccc2c(c1)oc(=O)c1c(Cl)cc(=O)oc12 [4-chloranyl-8-(diethylamino)pyrano[3,2-c]chromene-2,5-dione] | 55.4 |  |
| CC(C)c1ccc(S(=O)(=O)N=C2C=C(Sc3nnc[nH]3)C(=O)c3ccccc32)cc1 [4-isopropyl-N-[(1Z)-4-oxo-3-(1H-1,2,4-triazol-3-ylthio)naphthalen-1(4H)-ylidene]benzenesulfonamide] |  | 5.87 |
| COc1ccc(S(=O)(=O)Nc2ccc(O)c3ccccc23)cc1 [4-methoxy-N-(4-oxidanylnaphthalen-1-yl)benzenesulfonamide] |  | > 80 |
| Cc1ccc(S(=O)(=O)Nc2c(O)ccc3ccccc23)cc1 [4-methyl-N-(2-oxidanylnaphthalen-1-yl)benzenesulfonamide] | 27.4 |  |
| O=C1C=C(N2CCCCC2)c2ccccc2C1=O [4-piperidin-1-ylnaphthalene-1,2-dione] |  | 2.39 |
| CC1=NOC(=O)/C1=C\c1ccc(-c2ccc(Cl)cc2Cl)o1 [4-{[5-(2,4-dichlorophenyl)-2-furyl]methylene}-3-methyl-5(4H)-isoxazolone] |  | > 80 |
| Cc1cc(C)n2nc(SCc3nnc(SCc4ccccc4C)s3)nc2n1 [5,7-dimethyl-2-[({5-[(2-methylbenzyl)sulfanyl]-1,3,4-thiadiazol-2-yl}methyl)sulfanyl][1,2,4]triazolo[1,5-a]pyrimidine] |  | 3.71 |
| O=C1C=CC(=O)c2c(O)c(CO)c(CO)c(O)c21 [5,8-dihydroxy-6,7-bis(hydroxymethyl)naphthalene-1,4-dione] |  | > 80 |

| SMILES | IC50 [1] [µM] | IC50 [µM] |
| --- | --- | --- |
| CCC(c1ccccc1)C(CC)c1cc(O)c(O)c(O)c1 (stereo unspecified) [5-(4-phenylhexan-3-yl)benzene-1,2,3-triol] |  | > 80 |
| Cc1cccc(N2C(=O)NC(=O)C(=Cc3ccc4c(c3)CCCN4Cc3ccccc3)C2=O)c1 [5-[1-(1-Benzyl-1,2,3,4-tetrahydro-quinolin-6-yl)-meth-(E)-ylidene]-1-m-tolyl-pyrimidine-2,4,6-trione] |  | > 80 |
| COC1=C(Br)C(=O)c2ncccc2C1=O [7-bromo-6-methoxyquinoline-5,8-dione] |  | 4.89 |
| COc1ccc2[nH]c3c4c(ccc3c2c1)C(=O)C=CC4=O [8-methoxy-11H-benzo[a]carbazole-1,4-dione] |  | > 80 |
| COc1cc2c(cc1OC)-c1cc(NCc3ccccn3)nc(=O)n1CC2 [9,10-dimethoxy-2-(2-pyridinylmethylamino)-6,7-dihydropyrimido[6,1-a]isoquinolin-4-one] | 67.4 |  |
| Cc1ccc(C)c(-n2c3nc(=O)[nH]c(=O)c-3cc3cc([N+](=O)[O-])ccc32)c1 [10-(2,5-Dimethyl-phenyl)-7-nitro-10H-pyrimido[4,5-b]quinoline-2,4-dione] |  | > 80 |
| COc1ccc(N2C3=C(CC4=C2CCCC4=O)C(=O)CCC3)cc1 [10-(4-methoxyphenyl)-3,4,6,7,9,10-hexahydro-1,8(2H,5H)-acridinedione] | 24 |  |
| Cc1ccc(-n2c3nc(=O)[nH]c(=O)c-3cc3cc([N+](=O)[O-])ccc32)cc1 [10-(4-methylphenyl)-7-nitropyrimido[4,5-b]quinoline-2,4-dione] |  | 19.4 |
| Cc1nc(COC(=O)c2cc(O)c3ccccc3c2O)cs1 [(2-methyl-1,3-thiazol-4-yl)methyl 1,4-bis(oxidanyl)naphthalene-2-carboxylate] | 25 |  |
| COC1=CC(/C=C(\C#N)c2nc3ccc(C)cc3[nH]2)C=C([N+](=O)[O-])C1=O (stereo unspecified) [(2Z,3E)-3-(3-methoxy-5-nitro-4-oxocyclohexa-2,5-dien-1-ylidene)-2-(5-methyl-1,3-dihydrobenzimidazol-2-ylidene)propanenitrile] |  | 18 |
| COC(=O)[C@@H]1[C@@H](C(=O)OC)C2(c3ccccc3-c3ccccc32)N(c2ccc(Cl)cc2)N1C#N [(3'S,4'R)-1'-(4-chlorophenyl)-2'-cyanospiro[fluorene-9,5'-pyrazolidine]-3',4'-dicarboxylic acid dimethyl ester] |  | > 80 |
| O=C(C=Cc1ccc(Br)cc1)NC(=S)Nc1ccc(S(=O)(=O)Nc2nccs2)cc1 [(E)-3-(4-bromophenyl)-N-[[4-(1,3-thiazol-2-ylsulfamoyl)phenyl]carbamothioyl]prop-2-enamide] |  | > 80 |
| CNCc1ccccc1Sc1cc(O)ccc1O [(Z)-2-butenedioic acid;2-[[2-(methylaminomethyl)phenyl]thio]benzene-1,4-diol] |  | 4.58 |
| CCCCC[C@H](O)/C=C/[C@@H]1[C@@H](C/C=C\CCCC(=O)OC)[C@@H](O)C[C@H]1O [MLS000028823] |  | > 80 |
| CCCc1nc2oc3c(NCC4CCCO4)ncnc3c2c2c1COC(C)(C)C2 (stereo unspecified) [MLS000042555] | 31.6 |  |
| CC(C)c1nc2oc3c(NCC4CCCO4)ncnc3c2c2c1COC(C)(C)C2 (stereo unspecified) [MLS000084034] |  | 2.36 |
| COc1ncnc2c1oc1nc(C(C)C)c3c(c12)CC(C)(C)OC3 [MLS000084533] |  | 12.5 |
| N#Cc1ccc(CSc2nnc(NC(=O)c3ccc4ncsc4c3)s2)cc1 [MLS000334839] |  | > 80 |
| O=C1C(Nc2ccccc2)=CC(=NS(=O)(=O)c2cccs2)c2ccccc21 [MLS000374486] |  | 6.56 |
| CC(C)Nc1nnc(SCC(=O)Nc2ccc3c(c2)C(=O)c2ccccc2C3=O)s1 [MLS000390413] | 22.3 |  |
| O=C1c2ccccc2-c2onc3ccc(Oc4ccccc4)c1c23 [MLS000525578] |  | > 80 |

| SMILES | IC50 [1] [µM] | IC50 [µM] |
| --- | --- | --- |
| O=[N+]([O-])c1ccc(Sc2nc3ccccc3o2)c([N+](=O)[O-])c1 [MLS000532050] |  | > 80 |
| O=C1C(Cl)=C(N2CCCCC2)C(=O)C(Cl)=C1c1cnc(N2CCCCC2)s1 [MLS000550549] | 71.6 |  |
| CCCc1nc2oc3c(OC)ncnc3c2c2c1COC(C)(C)C2 [MLS000559436] |  | 18.5 |
| COc1cc2c(cc1OC)-c1c(OC)c(OC)c(OC)c3ccnc(c13)C2=O [MLS000574936] |  | 10.1 |
| COc1cc(/C=C2\SC(c3ccc(C)cc3)=NC2=O)ccc1O [MLS000579809] |  | > 80 |
| COc1cc(C2c3c([nH]c(=O)[nH]c3=O)Nc3ccc4ccccc4c32)cc(OC)c1OC (stereo unspecified) [MLS000663320] |  | > 80 |
| O=c1c2ccccc2nc(/C=C/c2cccnc2)n1Cc1ccccc1 [MLS000709026] |  | > 80 |
| Cc1nc([N+](=O)[O-])c(Br)n1Cc1ccc(Cl)c(Cl)c1 [MLS000730654] |  | > 80 |
| Cc1ccc(SC2=C(Sc3ccc(C)cc3)C(=O)c3ccccc3C2=O)cc1 [MLS000756557] |  | 20 |
| O=C1C(Nc2ccc(O)cc2)=CC(=NS(=O)(=O)c2cccs2)c2ccccc21 [MLS000775432] |  | 6.28 |
| CCc1nc2sc3c(O)ncnc3c2c2c1CSC(C)(C)C2 [MLS000776813] |  | 21.8 |
| CC(C)c1nc2oc3c(O)ncnc3c2c2c1COC(C)(C)C2 [MLS000779024] |  | 5.26 |
| Cc1cc(C)c(S(=O)(=O)N=C2C=C(Nc3ccc(C(=O)O)cc3)C(=O)c3ccccc32)c(C)c1 [MLS000948031] | 27.3 |  |
| Cc1ccc(S(=O)(=O)N=C2C=C(Nc3cccc(C(=O)O)c3)C(=O)c3ccccc32)cc1 [MLS000948051] |  | 6.79 |
| CCOC(=O)CSc1nc2ccc(C)cc2n2cnnc12 [MLS000999625] |  | 12.9 |
| O=Cc1[nH]c2ccccc2c1N(C(=O)CCl)c1ccccc1 [MLS001029456] |  | > 80 |
| O=C(/C=C/c1ccco1)NCC(=O)NNC1=c2ccccc2=NC1=O [MLS001075666] |  | > 80 |
| N#CC(C(=O)CCl)c1nc2c(s1)CCc1ccccc1-2 (stereo unspecified) [MLS001171530] |  | 38.3 |
| CC(=O)N(C1=C(Cl)C(=O)c2ccccc2C1=O)c1ccc(C(=O)O)cc1 [MLS001196720] |  | 8.68 |
